Measured values as given in patent US6689773B2, “Uracil substituted phenyl sulfamoyl carboxamides” (BASF Aktiengesellschaft, priority 2000, dated 2004).

Tests used:
Format in all cases: in vivo
[1] = test system: ABUTH, Velvetleaf, Abutilon theophrasti, Medic.; test: Postemergence herbicidal evaluation (Example 147); settings: rating scale 0-9, two to three weeks after treatment
Protocol: (§1) Seedling plants were grown in jiffy flats for about two weeks. The test compounds were dispersed in 80/20 acetone/water mixtures containing 1.0% SUN-IT®II, a methylated seed oil, in sufficient quantities to provide the equivalent of about 0.016 to 0.032 kg per hectare of active compound when applied to the plants through a spray nozzle operating at 40 psi for a predetermined time. After spraying, the plants were placed on greenhouse benches and were cared for in accordance with conventional greenhouse procedures. Approximately two to three weeks after treatment, the seedling plants were examined and rated according to the rating scale (0-9) set forth below. Where more than one test is involved for a given compound, the data are averaged. [table] The scale is based upon a visual observation of plant stand, vigor, malformation, size, chlorosis and overall plant appearance as compared with a control. Plant species employed in these evaluations are reported by header abbreviation, common name and scientific name. [table]

[2] = test system: ALOMY, Blackgrass, Alopecurus myosuroides; test: Postemergence herbicidal evaluation (Example 147); settings: rating scale 0-9, two to three weeks after treatment
Protocol: as §1

[3] = test system: AMBEL, Ragweed, Common, Ambrosia artemiisifolia, L.; test: Postemergence herbicidal evaluation (Example 147); settings: rating scale 0-9, two to three weeks after treatment
Protocol: as §1

[4] = test system: CHEAL, Lambsquarters, Chenopodium album, L. Common; test: Postemergence herbicidal evaluation (Example 147); settings: rating scale 0-9, two to three weeks after treatment
Protocol: as §1

[5] = test system: DIGSA, Crabgrass, (Hairy) L, Digitaria sanguinalis, (L)Scop; test: Postemergence herbicidal evaluation (Example 147); settings: rating scale 0-9, two to three weeks after treatment
Protocol: as §1

[6] = test system: ECHCG, Barnyardgrass, Echinochloa crusgalli, (L.)Beau; test: Postemergence herbicidal evaluation (Example 147); settings: rating scale 0-9, two to three weeks after treatment
Protocol: as §1

[7] = test system: GLXMA, Soybean, Glycine max, (L.) Merr.; test: Postemergence herbicidal evaluation (Example 147); settings: rating scale 0-9, two to three weeks after treatment
Protocol: as §1

[8] = test system: IPOHE, Morningglory, Ivyleaf, Ipomoea hederacea, (L)Jacq.; test: Postemergence herbicidal evaluation (Example 147); settings: rating scale 0-9, two to three weeks after treatment
Protocol: as §1

[9] = test system: SETVI, Green foxtail, Setaria viridis, (L.)Beau; test: Postemergence herbicidal evaluation (Example 147); settings: rating scale 0-9, two to three weeks after treatment
Protocol: as §1

[10] = test system: TRZAW, Winter wheat, Tritium Aestivum, L. (Winter); test: Postemergence herbicidal evaluation (Example 147); settings: rating scale 0-9, two to three weeks after treatment
Protocol: as §1

[11] = test system: XANST, Cocklebur, Xanthium strumariam; test: Postemergence herbicidal evaluation (Example 147); settings: rating scale 0-9, two to three weeks after treatment
Protocol: as §1

[12] = test system: ZEAMX, Field corn, Zea mays L.; test: Postemergence herbicidal evaluation (Example 147); settings: rating scale 0-9, two to three weeks after treatment
Protocol: as §1

[13] = test system: ABUTH, Velvetleaf, Abutilon theophrasti, Medic.; test: Preemergence herbicidal evaluation (Example 148); settings: rating scale 0-9, two to four weeks after treatment
Protocol: (§2) The scale is based upon a visual observation of plant stand, vigor, malformation, size, chlorosis and overall plant appearance as compared with a control.
(§3) The herbicidal activity of the compounds of the present invention was evaluated by the following tests wherein the seeds of a variety of monocotyledonous and dicotyledonous plants were separately mixed with potting soil and planted on top of approximately one inch of soil in separate pint cups. After planting, the cups were sprayed with the selected aqueous acetone solution containing test compound in sufficient quantity to provide the equivalent of about 0.125 to 0.250 kg per hectare of test compound per cup. The treated cups were then placed on greenhouse benches, watered and cared for in accordance with conventional greenhouse procedures. From two to four weeks after treatment, the tests were terminated and each cup was examined and rated according to the rating system provided in Example 94. When more than one test was performed for a given compound, the data were averaged.

[14] = test system: ALOMY, Blackgrass, Alopecurus myosuroides; test: Preemergence herbicidal evaluation (Example 148); settings: rating scale 0-9, two to four weeks after treatment
Protocol: as §2, §3

[15] = test system: AMBEL, Ragweed, Common, Ambrosia artemiisifolia, L.; test: Preemergence herbicidal evaluation (Example 148); settings: rating scale 0-9, two to four weeks after treatment
Protocol: as §2, §3

[16] = test system: CHEAL, Lambsquarters, Chenopodium album, L. Common; test: Preemergence herbicidal evaluation (Example 148); settings: rating scale 0-9, two to four weeks after treatment
Protocol: as §2, §3

[17] = test system: DIGSA, Crabgrass, (Hairy) L, Digitaria sanguinalis, (L)Scop; test: Preemergence herbicidal evaluation (Example 148); settings: rating scale 0-9, two to four weeks after treatment
Protocol: as §2, §3

[18] = test system: ECHCG, Barnyardgrass, Echinochloa crusgalli, (L.)Beau; test: Preemergence herbicidal evaluation (Example 148); settings: rating scale 0-9, two to four weeks after treatment
Protocol: as §2, §3

[19] = test system: GLXMA, Soybean, Glycine max, (L.) Merr.; test: Preemergence herbicidal evaluation (Example 148); settings: rate 0.125 kg/ha, rating scale 0-9, two to four weeks after treatment
Protocol: as §2, §3

[20] = test system: IPOHE, Morningglory, Ivyleaf, Ipomoea hederacea, (L)Jacq.; test: Preemergence herbicidal evaluation (Example 148); settings: rating scale 0-9, two to four weeks after treatment
Protocol: as §2, §3

[21] = test system: SETVI, Green foxtail, Setaria viridis, (L.)Beau; test: Preemergence herbicidal evaluation (Example 148); settings: rating scale 0-9, two to four weeks after treatment
Protocol: as §2, §3

[22] = test system: TRZAW, Winter wheat, Tritium Aestivum, L. (Winter); test: Preemergence herbicidal evaluation (Example 148); settings: rating scale 0-9, two to four weeks after treatment
Protocol: as §2, §3

[23] = test system: ZEAMX, Field corn, Zea mays L.; test: Preemergence herbicidal evaluation (Example 148); settings: rating scale 0-9, two to four weeks after treatment
Protocol: as §2, §3

Structure (SMILES): CCN(C)S(=O)(=O)NC(=O)c1cc(-n2c(=O)cc(C(F)(F)F)n(C)c2=O)c(F)cc1Cl [Example 66]
- Postemergence herbicidal rating ABUTH ([1]; rate 0.016 kg/ha): 9.0
- Postemergence herbicidal rating ABUTH ([1]; rate 0.032 kg/ha): 9.0
- Postemergence herbicidal rating ALMOY ([2]; rate 0.016 kg/ha): 1.0
- Postemergence herbicidal rating ALMOY ([2]; rate 0.032 kg/ha): 2.0
- Postemergence herbicidal rating AMBEL ([3]; rate 0.016 kg/ha): 9.0
- Postemergence herbicidal rating AMBEL ([3]; rate 0.032 kg/ha): 9.0
- Postemergence herbicidal rating CHEAL ([4]; rate 0.016 kg/ha): 8.0
- Postemergence herbicidal rating CHEAL ([4]; rate 0.032 kg/ha): 9.0
- Postemergence herbicidal rating DIGSA ([5]; rate 0.016 kg/ha): 5.0
- Postemergence herbicidal rating DIGSA ([5]; rate 0.032 kg/ha): 6.0
- Postemergence herbicidal rating ECHCG ([6]; rate 0.016 kg/ha): 8.0
- Postemergence herbicidal rating ECHCG ([6]; rate 0.032 kg/ha): 8.0
- Postemergence herbicidal rating GLXMA ([7]; rate 0.016 kg/ha): 8.0
- Postemergence herbicidal rating GLXMA ([7]; rate 0.032 kg/ha): 9.0
- Postemergence herbicidal rating IPOHE ([8]; rate 0.016 kg/ha): 9.0
- Postemergence herbicidal rating IPOHE ([8]; rate 0.032 kg/ha): 9.0
- Postemergence herbicidal rating SETVI ([9]; rate 0.016 kg/ha): 8.0
- Postemergence herbicidal rating SETVI ([9]; rate 0.032 kg/ha): 9.0
- Postemergence herbicidal rating TRZAW ([10]; rate 0.016 kg/ha): 5.0
- Postemergence herbicidal rating TRZAW ([10]; rate 0.032 kg/ha): 6.5
- Postemergence herbicidal rating XANST ([11]; rate 0.016 kg/ha): 9.0
- Postemergence herbicidal rating XANST ([11]; rate 0.032 kg/ha): 9.0
- Postemergence herbicidal rating ZEAMX ([12]; rate 0.016 kg/ha): 7.0
- Postemergence herbicidal rating ZEAMX ([12]; rate 0.032 kg/ha): 7.5
- Preemergence herbicidal rating ABUTH ([13]; rate 0.125 kg/ha): 9.0
- Preemergence herbicidal rating ABUTH ([13]; rate 0.25 kg/ha): 9.0
- Preemergence herbicidal rating ALMOY ([14]; rate 0.125 kg/ha): 0.0
- Preemergence herbicidal rating ALMOY ([14]; rate 0.25 kg/ha): 2.0
- Preemergence herbicidal rating AMBEL ([15]; rate 0.125 kg/ha): 9.0
- Preemergence herbicidal rating AMBEL ([15]; rate 0.25 kg/ha): 9.0
- Preemergence herbicidal rating CHEAL ([16]; rate 0.125 kg/ha): 9.0
- Preemergence herbicidal rating CHEAL ([16]; rate 0.25 kg/ha): 9.0
- Preemergence herbicidal rating DIGSA ([17]; rate 0.125 kg/ha): 4.0
- Preemergence herbicidal rating DIGSA ([17]; rate 0.25 kg/ha): 8.0
- Preemergence herbicidal rating ECHCG ([18]; rate 0.125 kg/ha): 4.0
- Preemergence herbicidal rating ECHCG ([18]; rate 0.25 kg/ha): 8.0
- Preemergence herbicidal rating GLXMA [19]: 0.0
- Preemergence herbicidal rating IPOHE ([20]; rate 0.125 kg/ha): 9.0
- Preemergence herbicidal rating IPOHE ([20]; rate 0.25 kg/ha): 9.0
- Preemergence herbicidal rating SETVI ([21]; rate 0.125 kg/ha): 4.0
- Preemergence herbicidal rating SETVI ([21]; rate 0.25 kg/ha): 6.0
- Preemergence herbicidal rating TRZAW ([22]; rate 0.125 kg/ha): 1.0
- Preemergence herbicidal rating TRZAW ([22]; rate 0.25 kg/ha): 1.0
- Preemergence herbicidal rating ZEAMX ([23]; rate 0.125 kg/ha): 1.0
- Preemergence herbicidal rating ZEAMX ([23]; rate 0.25 kg/ha): 2.0
